The source of these data is ChEMBL document CHEMBL4266018, “Discovery and Characterization of AZD6738, a Potent Inhibitor of Ataxia Telangiectasia Mutated and Rad3 Related (ATR) Kinase with Application as an Anticancer Agent” (J Med Chem, 2018).

A short description of data set [1]: Plasma concentration in Swiss nu/nu mouse xenografted with human LoVo cells at 25 mg/kg, po bid after 8 hrs. In kind it is ADME, organism-based. (A xenograft is tissue or cells of one species grown in another, often human tumour cells in immunodeficient mice.)
Data set [2] is described as follows: physchem. Conditions: octanol/phosphate buffer, pH 7.4.
Data set [3] deals with Rattus norvegicus. Put plainly: Dose normalized AUC in Han-Wistar rat at 4 umol/kg, po. Format: ADME, organism-based. Conditions: in vivo.
Data set [4] in a line: Plasma concentration in Swiss nu/nu mouse xenografted with human LoVo cells at 50 mg/kg, po qd after 8 hrs. In kind it is ADME, organism-based.
Data set [5] can be described thus: Apparent permeability across apical to basolateral side in human Caco2 cells at 10 uM at pH 7.4. Conditions: Caco-2, pH 7.4. In kind it is ADME, cell-based. On the technique in general: Caco-2 cells form a polarised layer with tight junctions and transporters.
A short description of data set [6]: in vitro. As to conditions: human, hepatocytes.
For data set [7], the system named is Rattus norvegicus. Put plainly: Dose normalized AUC in Han-Wistar rat at 10 umol/kg, po. Format: ADME, organism-based. As to conditions: in vivo.
The nature of data set [8]: in vitro. Conditions: rat, hepatocytes.
Data set [9] is described as follows: Plasma concentration in Swiss nu/nu mouse xenografted with human LoVo cells at 25 mg/kg, po qd after 8 hrs. Format: ADME, organism-based.
Data set [10] can be described thus: Apparent permeability across apical to basolateral side in human Caco2 cells at 10 uM at pH 6.5. Format: ADME, cell-based. As to conditions: Caco-2, pH 6.5.
Data set [11] in a line: Plasma concentration in Swiss nu/nu mouse xenografted with human LoVo cells at 12.5 mg/kg, po bid after 8 hrs. Format: ADME, organism-based.
The nature of data set [12]: Oral bioavailability in Beagle dog at […]. As to conditions: in vivo. Format: ADME, organism-based, Canis lupus familiaris.
Data set [13] can be described thus: Plasma concentration in Swiss nu/nu mouse xenografted with human LoVo cells at 75 mg/kg, po qd after 8 hrs. Format: ADME, organism-based.
Data set [14] is described as follows: Volume of distribution at steady state in Han Wistar rat at 8.55 umol/kg, iv or 20.3 umol/kg, po. Format: ADME, organism-based. As to conditions: in vivo, read-out: Vdss.
Data set [15] in a line: Oral bioavailability in Han Wistar rat at 20.3 umol/kg. As to conditions: in vivo. In kind it is ADME, organism-based.
Data set [16] in a line: Elimination half life in human. Conditions: in vivo, read-out: beta t1/2 (converted). In kind it is ADME, organism-based.
Data set [17] relates to Canis familiaris. The data set can be described thus: Clearance in Beagle dog at 10.5 umol/kg, iv or […], po relative to liver blood flow. Format: ADME, organism-based, Canis lupus familiaris. As to conditions: in vivo.
The test system of data set [18] is Rattus norvegicus. Put plainly: Clearance in Han Wistar rat at 8.55 umol/kg, iv or 20.3 umol/kg, po relative to liver blood flow. Format: ADME, organism-based. As to conditions: in vivo.
Data set [19] is described as follows: Volume of distribution at steady state in Beagle dog at 10.5 umol/kg, iv or […], po. Format: ADME, organism-based, Canis lupus familiaris. As to conditions: in vivo, read-out: Vdss.
Data set [20] can be described thus: Intrinsic clearance in human hepatocytes assessed as per million cells at 1 uM. Format: ADME, cell-based, Hepatocyte. As to conditions: read-out: CLH.

A word on the logD: it is lipophilicity at a set pH, counting ionised and neutral species. What is called Papp A→B is the apparent permeability from the apical to the basolateral side of a cell layer. Broadly, the bioavailability is the share of a dose that reaches the circulation, judged against a reference dose that is usually intravenous.

As to `C[C@@H]1COCCN1c1cc(C2(S(C)(=O)=O)CC2)nc(-c2cccc3[nH]ccc23)n1`, the concentration at 8 h turned out to be 1800 nM in [1] and 3500 nM in data set [4]. Moreover, the logD at 3 h, 10 µM in data set [2] was found to be 2.5. The compound also displayed an AUC/dose in data set [3] of 1 µM·h. The apical-to-basolateral permeability (Papp A→B) at 10 µM in [5] came out at 37 ×10⁻⁶ cm/s.
As to `CS(=O)(=O)C1(c2cc(N3CCOCC3)nc(-c3cccc4[nH]ccc34)n2)CC1`, the logD at 3 h, 10 µM in data set [2] was found to be 2.3.
Still for that read-out and setting: the value for `CS(=O)(=O)C1(c2cc(N3CCOCC3)nc(-c3cccc4[nH]cnc34)n2)CC1` was 2.2; that for `CNC(=O)c1cc(-c2nc(N3CCOCC3)cc(C3(S(C)(=O)=O)CC3)n2)c2cc[nH]c2c1` was 1.6; that for `C[C@@H]1COCCN1c1cc(C2([S@@](C)(=N)=O)CC2)nc(-c2ccnc3[nH]ccc23)n1` was 1.8.
`CNc1nc2ccccc2n1-c1nc(N2CCOC[C@H]2C)cc(C2([S@](C)(=N)=O)CC2)n1`: in [2], the log distribution coefficient (logD) at 3 h, 10 µM worked out at 2.1. Also, the figures for the hepatocyte CLint at 1 µM in [6] and in data set [8] were below 3 µL/min/1e6 cells and 11 µL/min/1e6 cells, respectively. For the same compound, the concentration at 8 h in data set [4] was found to be 940 nM. This compound also had an AUC/dose in data set [7] of 0.35 µM·h. Moreover, the Papp A→B at 10 µM in data set [5] was found to be 8 ×10⁻⁶ cm/s.
For `C[C@@H]1COCCN1c1cc(C2(S(C)(=N)=O)CC2)nc(-c2cncc3[nH]ccc23)n1` (some centres undefined), the pH-dependent lipophilicity (logD) at 3 h, 10 µM in [2] is 1.4.
On the same count and under the same terms, the value for `CC(=O)Nc1nc2ccccc2n1-c1nc(N2CCOC[C@H]2C)cc(C2(S(C)(=O)=O)CC2)n1` was 1.8.
On to `CS(=O)(=O)C1(c2cc(N3CCOCC3)nc(-c3cncc4[nH]ccc34)n2)CC1`, for which, in [2], the logD at 3 h, 10 µM is 1.8.
Same read-out and setting: as for `CS(=O)(=O)C1(c2cc(N3CCOCC3)nc(-c3ccnc4[nH]ccc34)n2)CC1`, the figure is 2.2.
Turning to `C[C@@H]1COCCN1c1cc(C2(S(C)(=O)=O)CC2)nc(-c2cncc3[nH]ccc23)n1`, the concentration at 8 h in data set [9] was found to be 780 nM; in data set [11], 220 nM. In addition, the logD at 3 h, 10 µM in data set [2] amounted to 2.1. The hepatocyte CLint at 1 µM was below 3 µL/min/1e6 cells in [6] and 10 µL/min/1e6 cells in data set [8]. Also, the Papp A→B at 10 µM in data set [10] is 8 ×10⁻⁶ cm/s. This compound gave an AUC/dose in data set [3] of 0.08 µM·h.
`CNc1nc2ccccc2n1-c1nc(N2CCOC[C@H]2C)cc(C2([S@@](C)(=N)=O)CC2)n1` came in with a logD at 3 h, 10 µM in data set [2] of 2.1.
Same read-out and setting: as for `C[C@@H]1COCCN1c1cc(C2([S@+](C)[O-])CC2)nc(-c2ccnc3[nH]ccc23)n1`, the figure is 2.5; as for `CS(=O)(=O)C1(c2cc(N3CC4CCC(C3)O4)nc(-c3cncc4[nH]ccc34)n2)CC1`, 2.2; as for `C[C@@H]1COCCN1c1cc(C2(S(C)(=O)=O)CC2)nc(-c2ccnc3[nH]ccc23)n1`, 2.6.
Still for that read-out and setting: the value for `CS(=O)(=O)C1(c2cc(C3=CCOCC3)nc(-c3cccc4[nH]ccc34)n2)CC1` was 2.9; that for `C[C@@H]1COCCN1c1cc(C2(S(C)(=O)=O)CC2)nc(-n2c(N)nc3ccccc32)n1` was 2.5.
With `C[C@H]1COCCN1c1cc(C2(S(C)(=O)=O)CC2)nc(-c2cncc3[nH]ccc23)n1`, the log distribution coefficient (logD) at 3 h, 10 µM in data set [2] came out at 2.2.
With `CNc1nc2ccccc2n1-c1nc(N2CCOC[C@H]2C)cc(C2(S(C)(=O)=O)CC2)n1`, the concentration at 8 h in data set [1] came out at 8300 nM. For the same compound, the logD at 3 h, 10 µM in [2] was found to be 2.8. The hepatocyte CLint at 1 µM in [6] was below 3 µL/min/1e6 cells; in [8], 25 µL/min/1e6 cells. This compound also returned an AUC/dose in data set [7] of 0.4 µM·h. Also, in [5], the Papp A→B at 10 µM came out at 53 ×10⁻⁶ cm/s.
`CS(=O)(=O)C1(c2cc(N3CCOCC3)nc(-n3c(N)nc4ccccc43)n2)CC1` gave a logD at 3 h, 10 µM in [2] of 2.2.
The same measure, in the same setting: the value for `CS(=O)(=O)C1(c2cc(N3C4CCC3COC4)nc(-c3cncc4[nH]ccc34)n2)CC1` was 2.1; that for `C[C@@H]1COCCN1c1cc(C2([S@@+](C)[O-])CC2)nc(-c2ccnc3[nH]ccc23)n1` was 2.5.
`C[C@@H]1COCCN1c1cc(C2([S@](C)(=N)=O)CC2)nc(-c2cc[nH]c3nccc2-3)n1` [CERALASERTIB]: the bioavailability in data set [12] came out at 100%; in data set [15], 67%. For the same compound, the values for the concentration at 8 h in data set [13], in data set [1] and in [4] were 2600 nM, 740 nM and 2200 nM, respectively. The values for the Vd in data set [14] and in [19] were 3.1 L/kg and 1 L/kg, respectively. The same compound showed a logD at 3 h, 10 µM in [2] of 1.9. Also, the half-life in [16] is 11 h. Further, the hepatocyte CLint at 1 µM is below 3 µL/min/1e6 cells in data set [6], 2 µL/min/1e6 cells in [20] and below 3.5 µL/min/1e6 cells in data set [8]. Also, the values for the apical-to-basolateral permeability (Papp A→B) at 10 µM in data set [10] and in data set [5] were 6.8 ×10⁻⁶ cm/s and 12 ×10⁻⁶ cm/s, respectively. Also, the CL in [17] turned out to be 10%; in [18], 22%. In data set [7], this compound displayed an AUC/dose of 0.8 µM·h.
